Experimental data taken from patent US6645960B1, “Antifungal sordaricin derivatives” (Glaxo Wellcome S.A., priority 1999, dated 2003).

Key:
[1] = tested on: Candida albicans 4711; assay: standard in vitro screen, minimum inhibiting concentration (MIC) by two-fold serial dilution, in the presence or absence of mouse serum; format: cell-based; conditions: for MIC C.albicans4711: absence of mouse serum; for MIC 50%serum C.albicans4711: presence of 50% mouse serum
Method: The in vitro evaluation of the anti-fungal activity of compounds of the invention was performed on liquid or solid medium by the anti-fungal two-fold serial dilution technique of determining the minimum inhibitory concentration (MIC) of anti-fungal agent that inhibited development of growth after 24 to 48 hours of incubation at 37° C. For example a series of agar plates or broth microdilution panels containing two-fold dilutions of anti-fungal agent were inoculated with a standard culture of a clinically relevant pathogen, in the presence and absence of activated or inactivated serum. The agar plates or broth microdilution panels were then examined for the presence or absence of growth of the fungus and the appropriate MIC values determined. […] Compounds of formula (I) have been tested for antifungal activity in a standard in vitro screen and the minimum inhibiting concentration (MIC;μg/ml) determined for each compound against a relevant strain of Candida albicans in the presence or absence of mouse serum.

[2] = tested on: battery of fungal organisms; conditions: tested against a battery of fungal organisms; cited from earlier work

## C=CCN1C[C@H](OC[C@@]23C[C@@H]4[C@H](C)CC[C@H]4[C@@]4(C=O)C[C@@H]2C=C(C(C)C)[C@@]34C(=O)OC(C)OC(=O)OCC)O[C@H](C)C1.Cl (single isomer, unassigned) [Example 2]
[1]; hydrochloride
  MIC C.albicans4711: 8 µg/mL
  MIC 50%serum C.albicans4711: 0.12 µg/mL

## C=CCN1C[C@H](OC[C@@]23C[C@@H]4[C@H](C)CC[C@H]4[C@@]4(C=O)C[C@@H]2C=C(C(C)C)[C@@]34C(=O)OC(C)OC(=O)OCC)O[C@H](C)C1.Cl (single isomer, unassigned) [Example 3]
[1]; hydrochloride
  MIC C.albicans4711: 62 µg/mL
  MIC 50%serum C.albicans4711: 0.06 µg/mL

## CO[C@H]1[C@@H](O)[C@H](O)[C@H](OC[C@@]23C[C@@H]4[C@H](C)CC[C@H]4[C@@]4(C=O)CC2C=C(C(C)C)[C@@]34C(=O)O)O[C@@H]1C [sordarin]
[2]
  antifungal activity: only moderately active

## C/C=C/C=C\C(=O)O[C@H]1[C@H](O)[C@H](OCC23C[C@@H]4[C@H](C)CC[C@H]4C4(C=O)CC2C=C(C(C)C)C34C(=O)O)O[C@H](C)[C@H]1OC (stereo partly drawn) [zofimarin]
[2]
  antifungal activity: only moderately active

## [[1R-(1α,3aβ,4β,4aβ,7β,7aα,8aβ)]8a-[(2R,6R)-(4-allyl-6-methyl-morpholin-2-yl)-oxymethyl]-4-formyl-4,4a,5,6,7,7a,8,8a-octahydro-7-methyl-3-(1-methylethyl)-1,4-methano-s-indacene-3a(1H)-carboxylic acid, phthalidyl ester hydrochloride [Example 4]
[1]
  MIC 50%serum C.albicans4711: 0.25 µg/mL

## [[1R-(1α,3aβ,4β,4aβ,7β,7aα,8aβ)]8a-[(2R,6R)-(4-allyl-6-methyl-morpholin-2-yl)-oxymethyl]-4-formyl-4,4a,5,6,7,7a,8,8a-octahydro-7-methyl-3-(1-methylethyl)-1,4-methano-s-indacene-3a(1H)-carboxylic acid, pivaloyloxymethyl ester hydrochloride [Example 5]
[1]
  MIC C.albicans4711: >125 µg/mL
  MIC 50%serum C.albicans4711: 0.05 µg/mL
